Test results as given in ChEMBL document CHEMBL1157375, “Prospective randomized trial of empiric therapy with trimethoprim-sulfamethoxazole or doxycycline for outpatient skin and soft tissue infections in an area of high prevalence of methicillin-resistant Staphylococcus aureus” (2007).
Activity calls are given as the source filed them. The calls are words filed in the database; no cut-off is given here.

System: Staphylococcus aureus
Experiment: Antimicrobial activity against methicillin-resistant Staphylococcus aureus infected patient with skin and soft tissue infection abscesses assessed as clinical failure rate at 100 mg, po twice daily for 7 days
Type: functional, organism-based

**Q.** With `C[C@H]1c2cccc(O)c2C(=O)C2=C(O)[C@]3(O)C(=O)C(C(N)=O)=C(O)[C@@H](N(C)C)[C@@H]3[C@@H](O)[C@@H]21` as the compound, how does the Activity read?
**A.** Active
